Laboratory results as given in patent US20240400572A1, “COMPOUNDS AND METHODS FOR TREATING CANCERS THAT ARE MGMT DEFICIENT REGARDLESS OF MMR STATUS” (Yale University, priority 2021, published 2024).
“And” between values parts separate entries of the source, which are not always exact repeats. Identical values can stand only once. “Also recorded” adds a separate entry of the source. Like-named read-outs stand apart in the source and are kept apart here.

Columns and labels:
[1] = Pharmacokinetic study, plasma; assay type: in vivo; details: male C57BL/6 mice; for plasma Concentration, Individuals / AUC(0-inf) / AUC(0-t) / Cmax / MRT inf / Tmax / half-life: PO 20 mg/kg; for plasma Concentration, Individuals / concentration at 0.083 hr / concentration at 0.167 hr / concentration at 0.333 hr / concentration at 0.5 hr / concentration at 0.75 hr / concentration at 1 hr / concentration at 2 hr / concentration at 4 hr / concentration at 8 hr: 20 mg/kg; for concentration at 0.083 hr / concentration at 0.167 hr / concentration at 0.333 hr / concentration at 0.5 hr / concentration at 0.75 hr / concentration at 1 hr / concentration at 2 hr / concentration at 4 hr / concentration at 8 hr: male, C57BL/6, mouse, po; for concentration at 0.083 hr / concentration at 0.167 hr / concentration at 0.333 hr / concentration at 0.5 hr / concentration at 0.75 hr / concentration at 1 hr / concentration at 2 hr / concentration at 4 hr / concentration at 8 hr / AUC(0-inf) / AUC(0-t) / Cmax / MRT inf / Tmax / half-life: plasma; for concentration at 8 hr: N=3; for AUC(0-inf) / AUC(0-t) / Cmax / MRT inf / Tmax / half-life: mouse
Method: Compound KL50 dosing solution: 3.39% DMSO+96.61% (10% HP-β-CD in saline) at 2 mg/mL; • 1) Weigh 17.39 mg of compound KL50 into a clean tube. • 2) Add 0.295 mL DMSO into the tube containing the compound. • 3) Vortex the tube for 3 min and sonicate it for 4 min. • 4) Add 8.400 mL 10% HP-β-CD in saline into the tube and vortex the tube for 3 min. Compound I-1 dosing solution: 3.39% DMSO+96.61% (10% HP-β-CD in saline) at 2 mg/mL; • 1) Weigh 16.86 mg Compound I-1 into a clean tube. • 2) Add 0.286 mL DMSO into the tube containing the compound. • 3) Vortex the tube for 3 min and sonicate it for 4 min. • 4) Add 8.144 mL 10% HP-β-CD in saline into the tube and vortex the tube for 3 min.
The in-vivo pharmacokinetic and brain distribution study was conducted under the following parameters. Twenty seven C57BL/6 male mice were purchased from Shanghai JiHui Laboratory Animal Co. LTD. Each mouse weighted from 16 g to 17 g. The mice were fasted overnight and fed post 4 hr sampling. Compound KL50 and Compound I-I were administered via oral gavage (PO) at a dose of 20 mg/kg (10 mL/kg). After dosing, sampling was completed at 0.083, 0.167, 0.333, 0.5, 0.75, 1, 2, 4 and 8 hr post dose, with three mice sacrificed at each time point.
Terminal bleeding for plasma and brain was completed at each time point. Approximately 110 μL blood per time point was collected into a K2EDTA tube via the facial vein. The blood sample was put on wet ice and centrifuged to obtain plasma sample (2000 g, 5 min under 4° C.) within 15 minutes. Plasma samples were acidified with 6 μL of formic acid for every 54 μL of plasma. After blood collection, a mid-line incision was made in the animal's scalp and the skin was retracted. The skull overlying the brain was removed. Then, the whole brain was collected, rinsed with cold saline, dried on filtrate paper, and weighed; and then snap frozen by placing the brain into dry-ice. Plasma samples were stored at approximately −70° C. until analysis. Brain tissue was homogenized with 3 volumes (v/w) of PBS (1% FA) and then analyzed with LC-MS/MS. The concentration of study drug was corrected with a dilution factor of four as following: Brain concentration=brain homogenate conc.×4, assuming 1 g wet brain tissue equals to 1 mL

[2] = tested on: LN229 MGMT−/MMR+ and LN229 MGMT−/MMR− (or MGMT−/MSH6−) flank tumors; experiment: Murine flank tumor models; assay type: in vivo; details: for median OS: Kaplan-Meier
Method: Mouse Protocols for Flank Studies. A mouse tumor model was established by subcutaneously implanting human LN229 (MGMT−/MMR+) or LN229 (MGMT−/MMR−) cells. Cells were cultured as a monolayer in DMEM+10% FBS (Thermo Fisher) at 37° C. in a humidified atmosphere with 5% CO2 and passaged between one and three days prior to implantation and media was replaced every 2-3 days as needed to maintain cell viability. Cells were not allowed to exceed 80% confluency. On the day of implantation, cells were trypsinized, washed with complete media and pelleted by centrifugation at 1200 rpm for 5 minutes. The supernatant was decanted, and cells were washed three times with sterile PBS and pelleted by centrifugation. During the final centrifugation, viability was determined using trypan blue exclusion. Cells were resuspended in sterile PBS and diluted 1:1 in Matrigel (Corning, Cat #47743-716) for a final concentration of 5×10^6 cells/100 μL. 5 million cells were injected into the flank of female nude mice (Envigo, Hsd:Athymic Nude-Foxn1^nu, 3-4 weeks age, 15 g). Once tumors reached a minimum volume of 100 mm^3, mice were randomized and administered either KL-50 (4a; 5 mg/kg MWF×3 weeks), TMZ (1a; 5 mg/kg MWF×3 weeks), or vehicle (10% cyclodextrin) by oral gavage. Caliper measurements were obtained during the dosing period and at least two weeks following treatment. Mice were euthanized if body weight loss exceeded 20% or if tumor volume increased to greater than 2000 mm^3. Kaplan-Meier analysis was used to evaluate survival rate based on death or removal from study.
In a second study, mice were randomized and administered either KL-50 (4a) or vehicle (10% cyclodextrin) by oral gavage or intraperitoneal injection on either M-F×1 or MWF×3 cycles at 5, 15, or 25 mgs/kg. Caliper measurements were obtained during the dosing period and at least two weeks following treatment. Mice were euthanized if body weight loss exceeded 20% or if tumor volume increased to greater than 2000 mm^3.
The third study involved MGMT−/MMR+ and MGMT−/MSH6− (shMSH6) LN229 cells. Mice tumors were allowed to grow to a larger average starting volume of ˜350 mm^3 before they were randomized and administered either KL-50 (4a; 25 mg/kg MWF×3 weeks) or vehicle (10% cyclodextrin) by oral gavage. Caliper measurements were obtained during the dosing period and at least two weeks following treatment. Mice were euthanized if body weight loss exceeded 20% or if tumor volume increased to greater than 3000 mm^3.

[3] = 0.083 hr, N=3, read-out: plasma Concentration, Mean
[4] = 0.083 hr, read-out: plasma Concentration, Individuals
[5] = 0.167 hr, N=3, read-out: plasma Concentration, Mean
[6] = 0.167 hr, read-out: plasma Concentration, Individuals
[7] = 0.333 hr, N=3, read-out: plasma Concentration, Mean
[8] = 0.333 hr, read-out: plasma Concentration, Individuals
[9] = 0.5 hr, N=3, read-out: plasma Concentration, Mean
[10] = 0.5 hr, read-out: plasma Concentration, Individuals
[11] = 0.75 hr, N=3, read-out: plasma Concentration, Mean
[12] = 0.75 hr, read-out: plasma Concentration, Individuals
[13] = 1 hr, N=3, read-out: plasma Concentration, Mean
[14] = 1 hr, read-out: plasma Concentration, Individuals
[15] = 2 hr, N=3, read-out: plasma Concentration, Mean
[16] = 4 hr, N=3, read-out: plasma Concentration, Mean
[17] = LN229 MGMT−/MMR− flank tumor-bearing mice, 5 mg/kg P.O. MWF×3 weeks

| SMILES | plasma Concentration, Individuals ([1]; 0.083 hr) | plasma Concentration, Individuals ([1]; 0.167 hr) | plasma Concentration, Individuals ([1]; 0.333 hr) | plasma Concentration, Individuals ([1]; 0.5 hr) | plasma Concentration, Individuals ([1]; 0.75 hr) | plasma Concentration, Individuals ([1]; 1 hr) | plasma Concentration, Individuals ([1]; 2 hr) | plasma Concentration, Individuals ([1]; 4 hr) | plasma Concentration, Individuals ([1]; 8 hr) | concentration at 0.083 hr [1, 3] [ng/mL] | concentration at 0.083 hr [1, 4] [ng/mL] | concentration at 0.167 hr [1, 5] [ng/mL] | concentration at 0.167 hr [1, 6] [ng/mL] | concentration at 0.333 hr [1, 7] [ng/mL] | concentration at 0.333 hr [1, 8] [ng/mL] | concentration at 0.5 hr [1, 9] [ng/mL] | concentration at 0.5 hr [1, 10] [ng/mL] | concentration at 0.75 hr [1, 11] [ng/mL] | concentration at 0.75 hr [1, 12] [ng/mL] | concentration at 1 hr [1, 13] [ng/mL] | other results |
| --- | --- | --- | --- | --- | --- | --- | --- | --- | --- | --- | --- | --- | --- | --- | --- | --- | --- | --- | --- | --- | --- |
| CNC(=O)c1ncn2c(=O)n(CCF)nnc12 [Compound I-1, 3-(2-fluoroethyl)-N-methyl-4-oxo-3H,4H-imidazo[4,3-d][1,2,3,5]tetrazine-8-carboxamide] | 20300 ng/mL and 20500 ng/mL | 15000 ng/mL and 16600 ng/mL | 11300 ng/mL and 13400 ng/mL | 7050 ng/mL and 7190 ng/mL | 4010 ng/mL and 3430 ng/mL | 1520 ng/mL and 2430 ng/mL | 359 ng/mL and 714 ng/mL and 185 ng/mL | 5.01 ng/mL and 2.42 ng/mL and 3.21 ng/mL | 2.65 ng/mL and 5.63 ng/mL and 7.33 ng/mL | 20700 | 21200 | 14300 | 11300 | 11200 | 8830 | 6850 | 6300 | 3810 | 3980 | 2040 | concentration at 1 hr [1, 14]: 2180 ng/mL; concentration at 2 hr [1, 15]: 419 ng/mL; concentration at 4 hr [1, 16]: 3.55 ng/mL; concentration at 8 hr ([1]; 8 hr): 5.2 ng/mL; AUC(0-inf) [1]: 9680 ng·h/mL; AUC(0-t) [1]: 9680 ng·h/mL; Cmax [1]: 20700 ng/mL; MRT inf [1]: 32.2 min; Tmax [1]: 4.98 min; half-life [1]: 37.3 min |
| Cn1nnc2c(C(N)=O)ncn2c1=O [TMZ, temozolomide, reference compound] |  |  |  |  |  |  |  |  |  |  |  |  |  |  |  |  |  |  |  |  | tumor growth, MGMT−/MMR+ flank tumors (in words) ([2]; 5 mg/kg P.O. MWF×3 weeks): suppressed tumor growth; tumor growth, MGMT−/MMR− flank tumors (in words) ([2]; 5 mg/kg P.O. MWF×3 weeks): no efficacy; median OS [2, 17]: 10 weeks |
| NC(=O)c1ncn2c(=O)n(CCF)nnc12 [KL-50, 3-(2-fluoroethyl)-4-oxo-3H,4H-imidazo[4,3-d][1,2,3,5]tetrazine-8-carboxamide] | 25600 ng/mL and 28000 ng/mL | 22900 ng/mL and 18100 ng/mL | 14500 ng/mL and 20900 ng/mL | 12400 ng/mL and 15300 ng/mL | 11000 ng/mL and 10200 ng/mL | 7340 ng/mL and 12300 ng/mL | 2750 ng/mL and 4570 ng/mL | 1590 ng/mL and 796 ng/mL | 305 ng/mL and 104 ng/mL and 185 ng/mL | 25300 | 22300 | 21800 | 24500 | 18100 | 19000 | 14000 | 14400 | 10300 | 9590 | 10000 | tumor growth, MGMT−/MMR+ flank tumors (in words) ([2]; 5 mg/kg P.O. MWF×3 weeks): statistically non-inferior to TMZ (1a); tumor growth, MGMT−/MMR− flank tumors (in words) ([2]; 5 mg/kg P.O. MWF×3 weeks): potently suppressed tumor growth; increase in median OS vs TMZ [2, 17]: greater than 5 week; median OS [2, 17]: greater than 15 weeks; body weight (in words) ([2]; LN229 flank tumor experiments, 5 mg/kg P.O. MWF×3 weeks): no significant changes in body weight; efficacy and toxicity over regimens (in words) ([2]; MGMT−/MMR+ and MGMT−/MMR− flank tumors, 5, 15, 25 mg/kg, MWF×3 weeks or M-F×1 week, PO or IP): effective and non-toxic; also recorded: equal efficacy with no observable increases in toxicity; growth of large tumors (in words) ([2]; ~350-400 mm^3 MGMT−/MMR+ and MGMT−/MSH6− tumors, 25 mg/kg PO MWF×3 weeks): potently suppressed the growth; concentration at 1 hr [1, 14]: 10500 ng/mL; concentration at 2 hr [1, 15]: 3300 ng/mL; concentration at 2 hr ([1]; 2 hr, read-out: plasma Concentration, Individuals): 2580 ng/mL; concentration at 4 hr [1, 16]: 1150 ng/mL; concentration at 4 hr ([1]; 4 hr, read-out: plasma Concentration, Individuals): 1060 ng/mL; concentration at 8 hr ([1]; 8 hr): 198 ng/mL; AUC(0-inf) [1]: 28800 ng·h/mL; AUC(0-t) [1]: 28400 ng·h/mL; Cmax [1]: 25300 ng/mL; MRT inf [1]: 88.2 min; Tmax [1]: 4.98 min; half-life [1]: 89.4 min |
